ChEMBL document CHEMBL3734705, “Synthesis and in vitro cytotoxicity of novel C-12 substituted-14-deoxy-andrographolide derivatives as potent anti-cancer agents” (2015)

What was measured:
[1] = Cytotoxicity against human LOXIMVI cells assessed as growth level at 10 uM after 48 hrs by SRB assay; type: functional, LOX IMVI
[2] = Cytotoxicity against human UO31 cells assessed as growth level at 10 uM after 48 hrs by SRB assay; type: functional, UO-31
[3] = Cytotoxicity against human HCC2998 cells assessed as growth level at 10 uM after 48 hrs by SRB assay; type: functional, HCC 2998
[4] = Cytotoxicity against human OVCAR3 cells assessed as growth level at 10 uM after 48 hrs by SRB assay; type: functional, OVCAR-3
U-251 = test: Cytotoxicity against human U251 cells assessed as growth level at 10 uM after 48 hrs by SRB assay; type: functional
EKVX = test: Cytotoxicity against human EKVX cells assessed as growth level at 10 uM after 48 hrs by SRB assay; type: functional
SK-MEL-28 = test: Cytotoxicity against human SK-MEL-28 cells assessed as growth level at 10 uM after 48 hrs by SRB assay; type: functional
[5] = Cytotoxicity against human SW620 cells assessed as growth level at 10 uM after 48 hrs by SRB assay; type: functional, SW-620
HT-29 = test: Cytotoxicity against human HT-29 cells assessed as growth level at 10 uM after 48 hrs by SRB assay; type: functional
[6] = Cytotoxicity against human DU145 cells assessed as growth level at 10 uM after 48 hrs by SRB assay; type: functional, DU-145
SN12C = test: Cytotoxicity against human SN12C cells assessed as growth level at 10 uM after 48 hrs by SRB assay; type: functional
[7] = Cytotoxicity against human SNB19 cells assessed as growth level at 10 uM after 48 hrs by SRB assay; type: functional, SNB-19
[8] = Cytotoxicity against human HOP92 cells assessed as growth level at 10 uM after 48 hrs by SRB assay; type: functional, HOP-92
[9] = Cytotoxicity against human SF268 cells assessed as growth level at 10 uM after 48 hrs by SRB assay; type: functional, SF-268
NCI-H226 = test: Cytotoxicity against human NCI-H226 cells assessed as growth level at 10 uM after 48 hrs by SRB assay; type: functional
Malme-3M = test: Cytotoxicity against human MALME-3M cells assessed as growth level at 10 uM after 48 hrs by SRB assay; type: functional
[10] = Cytotoxicity against human HCT116 cells assessed as growth level at 10 uM after 48 hrs by SRB assay; type: functional, HCT-116
MCF7 = test: Cytotoxicity against human MCF7 cells assessed as growth level at 10 uM after 48 hrs by SRB assay; type: functional
NCI-H322M = test: Cytotoxicity against human NCI-H322M cells assessed as growth level at 10 uM after 48 hrs by SRB assay; type: functional
T47D = test: Cytotoxicity against human T47D cells assessed as growth level at 10 uM after 48 hrs by SRB assay; type: functional
SK-MEL-2 = test: Cytotoxicity against human SK-MEL-2 cells assessed as growth level at 10 uM after 48 hrs by SRB assay; type: functional
[11] = Cytotoxicity against human HL-60(TB) cells assessed as growth level at 10 uM after 48 hrs by SRB assay; type: functional
[12] = Cytotoxicity against human OVCAR5 cells assessed as growth level at 10 uM after 48 hrs by SRB assay; type: functional, OVCAR-5
[13] = Cytotoxicity against human HCT15 cells assessed as growth level at 10 uM after 48 hrs by SRB assay; type: functional, HCT-15
[14] = Cytotoxicity against human NCI-ADR-RES cells assessed as growth level at 10 uM after 48 hrs by SRB assay; type: functional
SK-MEL-5 = test: Cytotoxicity against human SK-MEL-5 cells assessed as growth level at 10 uM after 48 hrs by SRB assay; type: functional
NCI-H522 = test: Cytotoxicity against human NCI-H522 cells assessed as growth level at 10 uM after 48 hrs by SRB assay; type: functional
[15] = Cytotoxicity against human UACC62 cells assessed as growth level at 10 uM after 48 hrs by SRB assay; type: functional, UACC-62
CCRF-CEM = test: Cytotoxicity against human CCRF-CEM cells assessed as growth level at 10 uM after 48 hrs by SRB assay; type: functional
[16] = Cytotoxicity against human OVCAR4 cells assessed as growth level at 10 uM after 48 hrs by SRB assay; type: functional, OVCAR-4
MDA-MB-435 = test: Cytotoxicity against human MDA-MB-435 cells assessed as growth level at 10 uM after 48 hrs by SRB assay; type: functional
[17] = Cytotoxicity against human SF539 cells assessed as growth level at 10 uM after 48 hrs by SRB assay; type: functional, SF-539
A549 = test: Cytotoxicity against human A549 cells assessed as growth level at 10 uM after 48 hrs by SRB assay; type: functional
[18] = Cytotoxicity against human IGROV1 cells assessed as growth level at 10 uM after 48 hrs by SRB assay; type: functional, IGROV-1
NCI-H23 = test: Cytotoxicity against human NCI-H23 cells assessed as growth level at 10 uM after 48 hrs by SRB assay; type: functional
[19] = Cytotoxicity against human SNB75 cells assessed as growth level at 10 uM after 48 hrs by SRB assay; type: functional, SNB-75
[20] = Cytotoxicity against human Caki1 cells assessed as growth level at 10 uM after 48 hrs by SRB assay; type: functional, CAKI-1
ACHN = test: Cytotoxicity against human ACHN cells assessed as growth level at 10 uM after 48 hrs by SRB assay; type: functional
[21] = Cytotoxicity against human UACC257 cells assessed as growth level at 10 uM after 48 hrs by SRB assay; type: functional, UACC-257
[22] = Cytotoxicity against human BT549 cells assessed as growth level at 10 uM after 48 hrs by SRB assay; type: functional, BT-549
MDA-MB-468 = test: Cytotoxicity against human MDA-MB-468 cells assessed as growth level at 10 uM after 48 hrs by SRB assay; type: functional
[23] = Cytotoxicity against human MOLT4 cells assessed as growth level at 10 uM after 48 hrs by SRB assay; type: functional, MOLT-4
[24] = Cytotoxicity against human Hs578T cells assessed as growth level at 10 uM after 48 hrs by SRB assay; type: functional, Hs-578T
K562 = test: Cytotoxicity against human K562 cells assessed as growth level at 10 uM after 48 hrs by SRB assay; type: functional
[25] = Cytotoxicity against human RPMI8226 cells assessed as growth level at 10 uM after 48 hrs by SRB assay; type: functional, RPMI-8226
M14 = test: Cytotoxicity against human M14 cells assessed as growth level at 10 uM after 48 hrs by SRB assay; type: functional
NCI-H460 = test: Cytotoxicity against human NCI-H460 cells assessed as growth level at 10 uM after 48 hrs by SRB assay; type: functional
A498 = test: Cytotoxicity against human A498 cells assessed as growth level at 10 uM after 48 hrs by SRB assay; type: functional
[26] = Cytotoxicity against human OVCAR8 cells assessed as growth level at 10 uM after 48 hrs by SRB assay; type: functional, OVCAR-8
[27] = Cytotoxicity against human COLO205 cells assessed as growth level at 10 uM after 48 hrs by SRB assay; type: functional, COLO 205
SR = test: Cytotoxicity against human SR cells assessed as growth level at 10 uM after 48 hrs by SRB assay; type: functional
KM12 = test: Cytotoxicity against human KM12 cells assessed as growth level at 10 uM after 48 hrs by SRB assay; type: functional
MDA-MB-231 = test: Cytotoxicity against human MDA-MB-231 cells assessed as growth level at 10 uM after 48 hrs by SRB assay; type: functional
786-0 = test: Cytotoxicity against human 786-0 cells assessed as growth level at 10 uM after 48 hrs by SRB assay; type: functional
[28] = Cytotoxicity against human SF295 cells assessed as growth level at 10 uM after 48 hrs by SRB assay; type: functional, SF-295
[29] = Cytotoxicity against human TK10 cells assessed as growth level at 10 uM after 48 hrs by SRB assay; type: functional, TK-10
[30] = Cytotoxicity against human RXF393 cells assessed as growth level at 10 uM after 48 hrs by SRB assay; type: functional, RXF 393
[31] = Cytotoxicity against human SKOV3 cells assessed as growth level at 10 uM after 48 hrs by SRB assay; type: functional, SK-OV-3
[32] = Cytotoxicity against human PC3 cells assessed as growth level at 10 uM after 48 hrs by SRB assay; type: functional, PC-3
[33] = Cytotoxicity against human HOP62 cells assessed as growth level at 10 uM after 48 hrs by SRB assay; type: functional, HOP-62

Structure (SMILES): C=C1CC[C@@H]2[C@](C)(COC(C)=O)[C@H](OC(C)=O)CC[C@@]2(C)[C@@H]1CC(NC1CC1)C1=CCOC1=O (mixture of isomers)
- Activity [1]: 94%
- Activity [2]: 82.44%
- Activity [3]: 102.97%
- Activity [4]: 96.85%
- Activity (U-251): 96.2%
- Activity (EKVX): 86.69%
- Activity (SK-MEL-28): 107.72%
- Activity [5]: 115.37%
- Activity (HT-29): 100.7%
- Activity [6]: 98.78%
- Activity (SN12C): 101.14%
- Activity [7]: 100.97%
- Activity [8]: 83.7%
- Activity [9]: 93.53%
- Activity (NCI-H226): 106.3%
- Activity (Malme-3M): 89.64%
- Activity [10]: 88.19%
- Activity (MCF7): 85.36%
- Activity (NCI-H322M): 98.57%
- Activity (T47D): 79.56%
- Activity (SK-MEL-2): 104.35%
- Activity [11]: 102.95%
- Activity [12]: 110.21%
- Activity [13]: 93.63%
- Activity [14]: 98.35%
- Activity (SK-MEL-5): 96.5%
- Activity (NCI-H522): 78.4%
- Activity [15]: 84.5%
- Activity (CCRF-CEM): 95.35%
- Activity [16]: 101.59%
- Activity (MDA-MB-435): 96.33%
- Activity [17]: 95.4%
- Activity (A549): 82.92%
- Activity [18]: 96%
- Activity (NCI-H23): 98.94%
- Activity [19]: 90.39%
- Activity [20]: 98.25%
- Activity (ACHN): 98.37%
- Activity [21]: 100.57%
- Activity [22]: 86.41%
- Activity (MDA-MB-468): 91.77%
- Activity [23]: 87.21%
- Activity [24]: 110.62%
- Activity (K562): 74.16%
- Activity [25]: 70.32%
- Activity (M14): 93.67%
- Activity (NCI-H460): 105.35%
- Activity (A498): 102.06%
- Activity [26]: 105.48%
- Activity [27]: 106.86%
- Activity (SR): 73.84%
- Activity (KM12): 90.49%
- Activity (MDA-MB-231): 100.99%
- Activity (786-0): 107.45%
- Activity [28]: 97.25%
- Activity [29]: 98.64%
- Activity [30]: 116.59%
- Activity [31]: 102.92%
- Activity [32]: 77.06%
- Activity [33]: 102.23%

Structure (SMILES): C=C1CC[C@@H]2[C@](C)(COC(C)=O)[C@H](OC(C)=O)CC[C@@]2(C)[C@@H]1CC(NCCCCCCCCCCCCCCCCCC)C1=CCOC1=O (mixture of isomers)
- Activity [1]: 98.11%
- Activity [2]: 88.83%
- Activity [3]: 114%
- Activity [4]: 103.35%
- Activity (U-251): 101.78%
- Activity (EKVX): 111.12%
- Activity (SK-MEL-28): 111.23%
- Activity [5]: 101.13%
- Activity (HT-29): 103.31%
- Activity [6]: 108.9%
- Activity (SN12C): 103.39%
- Activity [7]: 102.65%
- Activity [8]: 80.59%
- Activity [9]: 100.29%
- Activity (NCI-H226): 92.06%
- Activity (Malme-3M): 111.94%
- Activity [10]: 105.04%
- Activity (MCF7): 101.73%
- Activity (NCI-H322M): 102.69%
- Activity (T47D): 97.23%
- Activity [11]: 100.5%
- Activity [12]: 108.25%
- Activity [13]: 117.13%
- Activity [14]: 101.33%
- Activity (SK-MEL-5): 101.04%
- Activity (NCI-H522): 98.04%
- Activity [15]: 97.28%
- Activity (CCRF-CEM): 104.64%
- Activity [16]: 114.35%
- Activity (MDA-MB-435): 107%
- Activity [17]: 101.6%
- Activity (A549): 101.56%
- Activity [18]: 110.04%
- Activity (NCI-H23): 100.06%
- Activity [19]: 87.94%
- Activity [20]: 97.66%
- Activity (ACHN): 113.27%
- Activity [21]: 108.48%
- Activity [22]: 106.47%
- Activity (MDA-MB-468): 99.82%
- Activity [23]: 95.91%
- Activity [24]: 103.17%
- Activity (K562): 104.45%
- Activity [25]: 101.07%
- Activity (M14): 102.16%
- Activity (NCI-H460): 105.91%
- Activity (A498): 100.06%
- Activity [26]: 104.57%
- Activity [27]: 103.75%
- Activity (SR): 101.94%
- Activity (KM12): 107.75%
- Activity (MDA-MB-231): 96.62%
- Activity (786-0): 106.62%
- Activity [28]: 112.48%
- Activity [29]: 102.72%
- Activity [30]: 109.25%
- Activity [31]: 102.04%
- Activity [32]: 89.57%
- Activity [33]: 96.46%
